The source made the active and inactive calls.
What was measured:
Vero [1] = experiment: cells; type: functional; conditions: Chlorocebus sabaeus
[2] = reduction of Shn3 3'UTR-driven luciferase in osteoblasts – cell-based, Clone20 osteoblasts, firefly luciferase, cherry-picked, dose response (AID 624132); type: functional;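 note: firefly luciferase luminescence from reporter carrying the Shn3 3'UTR in osteoblasts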
[3] = non-specific 3'UTR reporter inhibition in Clone20-Shn3RL – cell-based, Renilla luciferase, cherry-picked, counter-screen for Shn3 inhibitor project, dose response (AID 624133); type: functional
Vero [4] = experiment: mammalian cell viability reduction – secondary assay, cytotoxicity control for West Nile virus antiviral project, dose response (AID 1650); type: functional; conditions: Chlorocebus sabaeus
Prothrombin = Prothrombin (Homo sapiens, UniProt P00734); experiment: Thrombin 1536 HTS Dose Response Confirmation. [Related pubchem assays: 1046 (Thrombin 1536 HTS; hits were confirmed in this assay)]; type: functional
Estrogen receptor beta [5] = target: T1, Estrogen receptor beta (Homo sapiens, UniProt Q92731);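 note: recombinant ER-beta bound to coactivator SRC1 peptide in presence of estradiol agonist; inhibitors block coactivator peptide binding and lower the FRET signal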
T1 sequence (Q92731 whole entry): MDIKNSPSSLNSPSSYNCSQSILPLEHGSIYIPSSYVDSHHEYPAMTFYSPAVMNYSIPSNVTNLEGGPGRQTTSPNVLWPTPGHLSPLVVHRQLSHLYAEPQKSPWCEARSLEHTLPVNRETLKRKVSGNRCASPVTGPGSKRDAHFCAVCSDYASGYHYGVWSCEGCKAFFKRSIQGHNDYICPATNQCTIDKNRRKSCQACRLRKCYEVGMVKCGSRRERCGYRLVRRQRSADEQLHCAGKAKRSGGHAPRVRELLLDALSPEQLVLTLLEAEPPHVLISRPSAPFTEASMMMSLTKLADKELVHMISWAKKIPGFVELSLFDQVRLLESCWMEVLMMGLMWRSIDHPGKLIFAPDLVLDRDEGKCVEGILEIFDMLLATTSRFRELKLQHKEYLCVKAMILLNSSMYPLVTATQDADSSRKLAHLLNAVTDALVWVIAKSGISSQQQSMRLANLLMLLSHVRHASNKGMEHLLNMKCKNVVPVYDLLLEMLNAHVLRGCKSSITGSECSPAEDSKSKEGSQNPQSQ

Estrogen receptor beta [6] = target: T1, Estrogen receptor beta; experiment: blockers of SRC-3 recruitment to ERβ – biochemical, ELISA, streptavidin-HRP readout, orthogonal assay, confirmation (AID 1060)
Cytochrome P450 3A4 = Cytochrome P450 3A4 (Homo sapiens, UniProt P08684); conditions: Potency;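 note: confirmatory qHTS run detecting inhibitors and substrates of CYP3A4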
Sequence of Cytochrome P450 3A4 (P08684 whole entry): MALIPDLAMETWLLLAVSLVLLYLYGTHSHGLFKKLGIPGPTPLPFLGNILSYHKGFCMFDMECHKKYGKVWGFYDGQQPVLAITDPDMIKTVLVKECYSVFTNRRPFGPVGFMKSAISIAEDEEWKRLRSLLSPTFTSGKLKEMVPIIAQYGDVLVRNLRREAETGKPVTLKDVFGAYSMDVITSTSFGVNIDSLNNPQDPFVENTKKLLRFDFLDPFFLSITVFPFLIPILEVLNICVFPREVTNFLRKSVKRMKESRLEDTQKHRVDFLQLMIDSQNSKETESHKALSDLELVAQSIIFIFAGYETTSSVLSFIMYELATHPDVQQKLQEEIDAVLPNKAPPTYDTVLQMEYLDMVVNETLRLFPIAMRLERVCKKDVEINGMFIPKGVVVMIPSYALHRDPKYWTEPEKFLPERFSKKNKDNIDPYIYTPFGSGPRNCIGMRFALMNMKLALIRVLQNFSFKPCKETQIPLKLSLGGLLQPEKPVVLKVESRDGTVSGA

Large T antigen = Large T antigen (Simian virus 40, UniProt P03070); type: functional, Betapolyomavirus macacae;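 note: Confirmatory-stage PubChem screen for compounds that inhibit SV40 T antigen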
Sequence of Large T antigen (P03070 whole entry): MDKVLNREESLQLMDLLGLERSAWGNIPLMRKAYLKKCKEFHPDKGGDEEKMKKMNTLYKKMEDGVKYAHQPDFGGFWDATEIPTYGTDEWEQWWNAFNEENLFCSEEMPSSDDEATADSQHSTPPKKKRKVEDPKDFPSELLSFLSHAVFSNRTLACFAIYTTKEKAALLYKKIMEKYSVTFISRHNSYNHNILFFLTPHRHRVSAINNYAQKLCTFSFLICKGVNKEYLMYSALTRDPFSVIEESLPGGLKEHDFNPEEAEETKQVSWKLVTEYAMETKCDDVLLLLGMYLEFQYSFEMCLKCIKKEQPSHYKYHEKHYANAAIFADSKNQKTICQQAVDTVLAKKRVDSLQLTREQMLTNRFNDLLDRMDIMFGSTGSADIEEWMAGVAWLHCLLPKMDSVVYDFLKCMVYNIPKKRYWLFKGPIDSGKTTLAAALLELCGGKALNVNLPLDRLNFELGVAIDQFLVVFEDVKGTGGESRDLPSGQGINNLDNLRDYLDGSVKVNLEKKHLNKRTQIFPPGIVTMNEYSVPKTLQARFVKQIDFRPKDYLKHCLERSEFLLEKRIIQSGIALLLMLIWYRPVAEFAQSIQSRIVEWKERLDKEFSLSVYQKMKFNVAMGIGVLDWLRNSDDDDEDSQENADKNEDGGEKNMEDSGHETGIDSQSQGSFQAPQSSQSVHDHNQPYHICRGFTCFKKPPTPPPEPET

[7] = target: Induced myeloid leukemia cell differentiation protein Mcl-1 (Homo sapiens, UniProt Q07820); type: functional
Sequence of Induced myeloid leukemia cell differentiation protein Mcl-1 (Q07820 whole entry): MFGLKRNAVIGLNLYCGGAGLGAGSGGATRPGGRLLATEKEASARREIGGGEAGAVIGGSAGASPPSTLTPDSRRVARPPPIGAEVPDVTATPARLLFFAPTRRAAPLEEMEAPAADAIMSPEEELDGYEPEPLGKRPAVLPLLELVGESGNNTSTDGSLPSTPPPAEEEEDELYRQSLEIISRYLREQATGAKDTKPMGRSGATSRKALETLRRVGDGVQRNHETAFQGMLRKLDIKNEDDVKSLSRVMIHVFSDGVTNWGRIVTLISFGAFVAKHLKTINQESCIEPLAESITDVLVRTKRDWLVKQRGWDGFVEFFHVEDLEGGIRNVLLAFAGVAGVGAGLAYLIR

[8] = target: T2, Histone-lysine N-methyltransferase NSD2 (Homo sapiens, UniProt O96028); type: biochemical
T2 sequence (O96028 whole entry): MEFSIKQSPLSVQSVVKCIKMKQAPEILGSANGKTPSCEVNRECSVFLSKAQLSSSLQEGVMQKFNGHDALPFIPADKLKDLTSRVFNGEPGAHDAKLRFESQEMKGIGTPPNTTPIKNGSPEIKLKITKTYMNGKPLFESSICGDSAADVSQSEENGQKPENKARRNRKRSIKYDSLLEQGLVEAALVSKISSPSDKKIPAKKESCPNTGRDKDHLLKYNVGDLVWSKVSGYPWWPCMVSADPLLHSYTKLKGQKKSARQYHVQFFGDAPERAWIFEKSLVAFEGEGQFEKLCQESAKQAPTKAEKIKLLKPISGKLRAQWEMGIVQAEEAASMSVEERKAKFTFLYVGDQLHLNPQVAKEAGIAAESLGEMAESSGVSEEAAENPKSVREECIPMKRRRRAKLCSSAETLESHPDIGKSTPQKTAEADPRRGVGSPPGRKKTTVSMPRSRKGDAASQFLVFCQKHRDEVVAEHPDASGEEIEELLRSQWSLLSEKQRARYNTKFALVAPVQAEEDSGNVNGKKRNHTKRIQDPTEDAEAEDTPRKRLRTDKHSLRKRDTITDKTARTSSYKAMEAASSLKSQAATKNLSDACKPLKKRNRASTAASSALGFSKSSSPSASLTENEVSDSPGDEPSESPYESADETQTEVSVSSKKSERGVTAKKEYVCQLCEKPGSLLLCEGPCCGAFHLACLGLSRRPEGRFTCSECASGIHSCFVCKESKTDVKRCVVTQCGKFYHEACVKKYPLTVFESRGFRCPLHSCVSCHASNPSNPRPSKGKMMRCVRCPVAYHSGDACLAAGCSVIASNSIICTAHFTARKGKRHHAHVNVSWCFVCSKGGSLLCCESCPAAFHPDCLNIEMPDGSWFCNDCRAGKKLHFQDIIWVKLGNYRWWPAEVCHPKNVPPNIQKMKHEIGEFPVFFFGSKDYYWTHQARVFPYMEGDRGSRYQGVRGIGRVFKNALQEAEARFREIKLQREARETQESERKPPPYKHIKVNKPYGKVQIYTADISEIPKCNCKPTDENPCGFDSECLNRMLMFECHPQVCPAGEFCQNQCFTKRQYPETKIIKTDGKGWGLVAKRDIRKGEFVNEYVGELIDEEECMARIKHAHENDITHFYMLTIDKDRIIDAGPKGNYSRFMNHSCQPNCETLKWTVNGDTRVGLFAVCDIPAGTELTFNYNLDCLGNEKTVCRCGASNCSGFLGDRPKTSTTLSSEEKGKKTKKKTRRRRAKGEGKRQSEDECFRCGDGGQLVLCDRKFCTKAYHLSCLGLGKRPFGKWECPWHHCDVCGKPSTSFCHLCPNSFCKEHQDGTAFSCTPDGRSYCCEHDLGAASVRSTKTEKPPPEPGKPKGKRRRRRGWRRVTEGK

[9] = target: Dual specificity tyrosine-phosphorylation-regulated kinase 1A (Rattus norvegicus, UniProt Q63470); type: biochemical, Homo sapiens
[10] = target: T3, Acyl-homoserine lactone acylase PvdQ (Pseudomonas aeruginosa (strain LESB58), UniProt Q9I194); experiment: PvdQ acylase enzyme activity blockers – biochemical, fluorescence, plate reader and imaging, cherry-picks, dose response (AID 493231)
T3 sequence (Q9I194 whole entry): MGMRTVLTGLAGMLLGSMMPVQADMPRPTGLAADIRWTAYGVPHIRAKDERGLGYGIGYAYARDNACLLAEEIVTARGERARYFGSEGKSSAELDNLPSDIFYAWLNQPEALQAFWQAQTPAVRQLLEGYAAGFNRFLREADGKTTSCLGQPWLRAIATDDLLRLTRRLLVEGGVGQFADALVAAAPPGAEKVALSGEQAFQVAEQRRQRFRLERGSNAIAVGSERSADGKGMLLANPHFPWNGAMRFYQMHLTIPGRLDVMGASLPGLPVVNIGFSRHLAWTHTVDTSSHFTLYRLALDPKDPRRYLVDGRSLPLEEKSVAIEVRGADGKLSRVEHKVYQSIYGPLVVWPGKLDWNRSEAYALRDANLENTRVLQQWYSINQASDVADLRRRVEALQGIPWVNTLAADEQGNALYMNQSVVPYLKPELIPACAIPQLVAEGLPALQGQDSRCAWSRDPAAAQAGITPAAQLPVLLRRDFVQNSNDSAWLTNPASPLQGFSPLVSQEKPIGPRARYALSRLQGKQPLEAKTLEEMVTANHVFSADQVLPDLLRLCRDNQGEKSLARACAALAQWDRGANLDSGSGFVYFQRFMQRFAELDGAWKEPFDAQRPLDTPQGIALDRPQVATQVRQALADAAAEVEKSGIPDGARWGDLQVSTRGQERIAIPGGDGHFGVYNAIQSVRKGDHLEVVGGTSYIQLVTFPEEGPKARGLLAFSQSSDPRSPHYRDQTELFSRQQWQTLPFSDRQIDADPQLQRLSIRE

Bcl-2-like protein 10 = target: T4, Bcl-2-like protein 10 (Homo sapiens, UniProt Q9HD36); experiment: Bcl-B/TR3 peptide binding disruption – biochemical, fluorescence polarization, FITC-TR3 peptide, selectivity assay for Bfl-1 inhibitor project, primary screen (AID 748);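 note: fluorescence polarization from a fluorescein-labelled TR3 peptide binding purified Bcl-B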
T4 sequence (Q9HD36 whole entry): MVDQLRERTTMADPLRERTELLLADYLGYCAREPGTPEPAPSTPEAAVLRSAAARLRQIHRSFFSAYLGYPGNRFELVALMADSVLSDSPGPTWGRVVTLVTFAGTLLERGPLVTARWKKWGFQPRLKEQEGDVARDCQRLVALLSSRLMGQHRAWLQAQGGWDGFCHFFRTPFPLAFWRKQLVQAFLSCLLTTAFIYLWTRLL

[11] = Trypanosoma cruzi growth suppression in host cells – NIH3T3 host cells, beta-gal luminescence, confirmation (AID 2044); type: functional, cell-based;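 note: intracellular parasites grown in NIH/3T3 mouse fibroblasts as host cells; luminescent beta-galactosidase reporter signal from transgenic T. cruzi replicating inside host cells; inhibitors lower the luminescence signal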
[12] = NIH3T3 cell viability loss – ATP luminescence, mouse fibroblasts, counter-screen, dose response (AID 2010); type: functional, cell-based;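 note: cells exposed to compound for about 90 hours before reading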
Paired box protein Pax-8 = Paired box protein Pax-8 (Homo sapiens, UniProt Q06710); experiment: PAX8 transcriptional activity inhibition in RMG-I – RMG-I cells, luciferase, cherry-pick, dose response (AID 687027); type: functional, cell-based;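 note: luciferase reporter driven by Pax8 target thyroperoxidase promoter measured by SteadyGlo luminescence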
Sequence of Paired box protein Pax-8 (Q06710 whole entry): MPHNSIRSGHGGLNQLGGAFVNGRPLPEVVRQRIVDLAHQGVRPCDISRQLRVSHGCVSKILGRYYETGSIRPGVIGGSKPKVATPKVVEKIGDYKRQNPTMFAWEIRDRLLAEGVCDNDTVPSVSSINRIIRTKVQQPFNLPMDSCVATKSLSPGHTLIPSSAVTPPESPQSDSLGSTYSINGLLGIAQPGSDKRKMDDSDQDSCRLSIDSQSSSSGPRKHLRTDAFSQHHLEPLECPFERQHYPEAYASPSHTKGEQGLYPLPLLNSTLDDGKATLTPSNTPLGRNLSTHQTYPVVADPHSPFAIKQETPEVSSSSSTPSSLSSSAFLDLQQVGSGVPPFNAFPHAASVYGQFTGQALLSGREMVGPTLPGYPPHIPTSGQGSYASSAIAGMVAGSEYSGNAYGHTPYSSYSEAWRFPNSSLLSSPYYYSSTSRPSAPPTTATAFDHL

[13] = general cell-killing toxicity readout – plate reader, dry powder samples, cytotoxicity control for PAX8 inhibitor project, dose response (AID 743021); type: functional, cell-based
[14] = OVCAR8 cell viability loss – plate reader, dry powder samples, PAX8 project, dose response (AID 743197); type: functional, cell-based; conditions: OVCAR-8
[15] = OVCAR-3 cell viability loss – plate reader, dry powder samples, PAX8 inhibitor project, dose response (AID 743044); type: functional, cell-based
[16] = IGROV1 cell killing – plate reader, dry powder samples, PAX8 inhibitor project, dose response (AID 743043); type: functional, cell-based; conditions: IGROV-1
[17] = A2780 cell killing – plate reader, dry powder samples, cytotoxicity control, dose response (AID 743046); type: functional, cell-based
[18] = P. falciparum Dd2 growth inhibitors, dose response, SYBR Green, cherry-picked samples (AID 1159567); type: functional, cell-based
[19] = toxicity to human hepatoma HepG2 cells – cell-based, cherry-picked samples, cytotoxicity control, dose response (AID 1159577); type: functional

With `Cc1ccc(Cn2ccc(NC(=O)c3nn(C)cc3[N+](=O)[O-])n2)cc1` the CC50 (Vero [1]) was 13.8 µM (active), the AC50 [2] was 4.09 µM (active) and the AC50 [3] was 27.3 µM (active). The CC50 (Vero [4]) was 11.6 µM (active).

In the case of `CC(Nc1nc(O)c2c(ncn2Cc2ccccc2)n1)C(=O)O` (stereo unspecified), the IC50 (Prothrombin) is reported as > 50 µM (not active).

With `Cc1cc2n(c1)CCn1c(C)ccc1-2` the IC50 (Estrogen receptor beta [5]) was 3.91 µM (active) and the IC50 (Estrogen receptor beta [6]) was 3.06 µM (not active).

In the case of `COC(=O)NC(c1cccc(C)c1)C(C(C)=O)C(=O)OC` (stereo unspecified), the AC50 (Cytochrome P450 3A4) is reported as 7.94 µM (inconclusive).

In the case of `COc1ccc(S(=O)(=O)N2CCOCC2)cc1NC(=O)COC(=O)c1ccc(C)s1`, the IC50 (Prothrombin) is reported as 0.408 µM (active).

In the case of `Cc1ccc(C2=NC(=O)/C(=C/c3cc(O)c(O)c(Br)c3)S2)cc1`, the IC50 (Large T antigen) is reported as 4.91 µM (active), the IC50 [7] is reported as 0.767 µM (active) and the AC50 [8] is reported as 3.45 µM (active).

With `Cc1cc(-c2ccc(/N=N/c3cc(S(=O)(=O)O)c4ccccc4c3N)c(C)c2)ccc1/N=N/c1cc(S(=O)(=O)O)c2ccccc2c1N` the AC50 (Cytochrome P450 3A4) was 25.1 µM (inconclusive).

In the case of `c1cnc2ccc(-c3ccc4ncccc4c3)cc2c1`, the AC50 [9] is reported as 0.189 µM (active) and the AC50 [10] is reported as 10.7 µM (active).

With `COc1ccc(N(C(=O)c2ccco2)S(=O)(=O)c2cccc([N+](=O)[O-])c2)cc1` the IC50 (Prothrombin) was 2.18 µM (active).

In the case of `COCc1cc(C2SCC(=O)Nc3c2c(O)nn3C(C)C)ccc1OC` (stereo unspecified), the IC50 (Bcl-2-like protein 10) is reported as > 100 µM (inactive).

With `CC(=O)Nc1ccc(OC(=O)CC2SC(=O)NC2=O)cc1` (stereo unspecified) the IC50 (Estrogen receptor beta [5]) was 8.53 µM (active), the IC50 (Estrogen receptor beta [6]) was < 0.023 µM (not active) and the IC50 (Bcl-2-like protein 10) was > 100 µM (inactive).

In the case of `COc1ccc(/C=C2\CN(Cc3ccccc3)C/C(=C\c3ccc(OC)cc3OC)C2=O)c(OC)c1`, the EC50 [11] is reported as 1.83 µM (active), the EC50 [12] is reported as 9.01 µM (active) and the AC50 (Paired box protein Pax-8) is reported as 10.4 µM (active). The AC50 [13] was 42.3 µM (active).

With `CC(C)=CCC/C(C)=C/CN1C(=O)N(c2ccc(F)cc2)[C@H]2C[C@@H](c3ccccc3)[C@@H](C)[C@@H](C(=O)N3CCOCC3)C[C@H]21` the AC50 (Paired box protein Pax-8) was 2.66 µM (active) and the AC50 [13] was 42 µM (active).

For `COc1ccc(S(=O)(=O)Nc2ccc3c(c2)C(=O)N([C@H](C)CO)C[C@H](C)[C@@H](CN(C)S(=O)(=O)c2ccc(F)cc2)OCCCC[C@H](C)O3)cc1`, the AC50 [14] was 22.9 µM (active), the AC50 [15] was 12.5 µM (active) and the AC50 (Paired box protein Pax-8) was 3.96 µM (active). For the same molecule, the AC50 [16] was 37.1 µM (active) and the AC50 [17] was 34.7 µM (active).

In the case of `C[C@@H]1CCCCO[C@H](CN(C)S(=O)(=O)c2ccc(Cl)cc2)[C@@H](C)CN([C@@H](C)CO)C(=O)c2cc(NS(=O)(=O)c3ccc(F)cc3)ccc2O1`, the AC50 [14] is reported as 62.8 µM (active), the AC50 [15] is reported as 39 µM (active) and the AC50 (Paired box protein Pax-8) is reported as 7.67 µM (active). The AC50 [17] was 11.5 µM (active).

With `COc1ccc(C#Cc2ccc([C@@H]3[C@H](CO)N4CCCCN(Cc5ccccc5F)C[C@@H]34)cc2)cc1` the AC50 [18] was 0.756 µM (active) and the AC50 [19] was 9.38 µM (active).

For `O=S(=O)(c1ccc(F)cc1)N1C[C@@H]2N[C@H](C1)[C@@H]2c1ccc(-c2ccc(F)cc2)cc1`, the AC50 [18] was 7.37 µM (active) and the AC50 [19] was 11 µM (active).

In the case of `O=C(Nc1cc(F)ccc1F)N1CCCCN2[C@@H](CO)[C@@H](c3ccc(-c4ccccc4)cc3)[C@@H]2C1`, the AC50 [18] is reported as 2.56 µM (active) and the AC50 [19] is reported as 9.99 µM (active).
